In PubChem BioAssay (NCI) one finds TGI and GI50 data, which are given here for 17 compounds.

Structures are written as SMILES. Several values for one entry are separate records, joined by “and”; a condition that tells them apart may be missing. Equal values may be shown once.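 Each compound was tested at five concentrations against cells in 96-well plates for 48 hours. At the GI50, growth is halved. Definition used: TGI = concentration required for complete inhibition of growth.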

Test systems include UACC-62 melanoma; OVCAR-4 ovarian; 786-0 renal; K-562 leukemia; EKVX NSCLC; A498 renal; TK-10 renal; BT-549 breast; DU-145 prostate.
Common to all, as to assay: DTP human tumour cell line panel, 48 h

In general, TGI refers to the concentration at which net growth stops. A lower TGI goes with more potent growth arrest. As for `CCOC(=O)/C(=C/c1cccc(OC)c1)N(CC)CC`, the TGI in the experiment on UACC-62 melanoma, in the experiment on OVCAR-4 ovarian, in the experiment on 786-0 renal, in the experiment with K-562 leukemia, with EKVX NSCLC and in the experiment on A498 renal was greater than 100 µM throughout. Moreover, the TGI with TK-10 renal is greater than 100 µM.
For `CC(C)c1ccccc1NC(=O)/C(Cl)=C1/Sc2ccccc2NC1=O`, the TGI in the experiment on UACC-62 melanoma was greater than 100 µM; in the experiment with OVCAR-4 ovarian, greater than 100 µM; in the experiment with 786-0 renal, greater than 100 µM; in the experiment with K-562 leukemia it was greater than 100 µM; with EKVX NSCLC, greater than 100 µM; in the experiment on A498 renal it was 93.2 µM. For the same compound, the TGI with TK-10 renal was greater than 100 µM.
As for `CCOC(=O)c1ccc(N[C@@H]2c3cc4c(cc3C(C3=CC(=O)C(=O)C(OC)=C3)[C@H]3C(=O)OCC32)OCO4)cc1` (some centres not stated), the TGI in the experiment with UACC-62 melanoma was 7.69 µM; in the experiment with OVCAR-4 ovarian, greater than 83 µM; with 786-0 renal, 4.09 µM; with K-562 leukemia it was greater than 69.4 µM; in the experiment with EKVX NSCLC, 26.3 µM; in the experiment on A498 renal it was 13 µM. Also, in the experiment with TK-10 renal, the TGI amounted to 38.9 µM.
In the case of `COc1ccc(Nc2nc3ccccc3nc2-c2cccs2)cc1`, the TGI with UACC-62 melanoma, with OVCAR-4 ovarian, with 786-0 renal, in the experiment with K-562 leukemia, with EKVX NSCLC and in the experiment on A498 renal was greater than 100 µM throughout. Moreover, in the experiment on TK-10 renal, the TGI is greater than 100 µM.
Regarding `CC1(c2ccccc2)CC(c2ccccc2)=NO1` (configuration not stated), the TGI in the experiment with UACC-62 melanoma, with OVCAR-4 ovarian, in the experiment on 786-0 renal, in the experiment on K-562 leukemia, with EKVX NSCLC and with A498 renal was greater than 100 µM in each case. Also, the TGI with TK-10 renal is greater than 100 µM.
As to `CC1(Cc2ccccc2)NC(=S)NC1=O` (configuration not stated), the TGI in the experiment with 786-0 renal, in the experiment on EKVX NSCLC and in the experiment on TK-10 renal was greater than 100 µM throughout.
As usually defined, the GI50 is the concentration at which growth is held to half of that of the control. For the compound `Cc1ccc2nc3c(Cl)c(C)c(=O)cc-3sc2c1`, the GI50 with UACC-62 melanoma is 27.8 µM; in the experiment with OVCAR-4 ovarian, 61.7 µM; with 786-0 renal, 96.3 µM; with EKVX NSCLC, 63.3 µM; in the experiment on TK-10 renal, greater than 100 µM. The TGI in the experiment on UACC-62 melanoma is > 1 µM and 92.2 µM; in the experiment on OVCAR-4 ovarian, greater than 100 µM; with 786-0 renal, greater than 100 µM; with K-562 leukemia, greater than 100 µM; in the experiment with EKVX NSCLC, greater than 100 µM; in the experiment on A498 renal, greater than 100 µM. This compound also came in with a TGI in the experiment on TK-10 renal greater than 100 µM.
Take `O=c1c(Cl)c(Cl)cnn1CCc1ccncc1`: the TGI in the experiment on UACC-62 melanoma is 39.8 µM; in the experiment on OVCAR-4 ovarian, 33 µM; with 786-0 renal it was 59.6 µM; in the experiment on K-562 leukemia, greater than 100 µM; in the experiment with EKVX NSCLC, 36.2 µM; in the experiment with A498 renal, 44.6 µM. Further, the total growth inhibition concentration (TGI) with TK-10 renal is greater than 100 µM.
For the compound `CSc1c(C)c(C)nn1-c1ccccc1`, the TGI in the experiment on UACC-62 melanoma, with OVCAR-4 ovarian, in the experiment with 786-0 renal, in the experiment on K-562 leukemia, with EKVX NSCLC and in the experiment with A498 renal was greater than 100 µM throughout. The compound also displayed a total growth inhibition concentration (TGI) in the experiment on TK-10 renal greater than 100 µM.
For the compound `CC/C(=N\NS(=O)(=O)c1ccccc1)c1ccccc1`, the TGI in the experiment with UACC-62 melanoma, in the experiment with OVCAR-4 ovarian, in the experiment with 786-0 renal, in the experiment with K-562 leukemia, in the experiment on EKVX NSCLC and in the experiment on A498 renal was greater than 100 µM in each case. Also, in the experiment with TK-10 renal, the TGI is greater than 100 µM.
On to `C[n+]1c2ccccc2cc2c(CNC(CCCN=C(N)N)C(=O)O)cccc21` (configuration not stated), for which the TGI is 2.32 µM in the experiment on UACC-62 melanoma; 23.9 µM with OVCAR-4 ovarian; 2.19 µM and 1.59 µM in the experiment with 786-0 renal; 1.09 µM and 7.63 µM in the experiment with K-562 leukemia; 10.2 µM in the experiment on EKVX NSCLC; 8.7 µM in the experiment with A498 renal. Further, the TGI in the experiment with TK-10 renal is 2.07 µM and 2.35 µM. Further, the GI50 is 0.443 µM in the experiment with 786-0 renal, 0.485 µM with K-562 leukemia, 2.68 µM with EKVX NSCLC and 0.967 µM in the experiment on TK-10 renal.
As for `Cc1ccccc1Nc1nc2c(s1)C(=O)c1ccccc1C2=O`, the TGI with UACC-62 melanoma is 10.3 µM; with OVCAR-4 ovarian, 5.13 µM; with 786-0 renal, 8.47 µM; in the experiment on BT-549 breast, 6.57 µM; in the experiment with K-562 leukemia, greater than 36.2 µM; in the experiment on DU-145 prostate, 20 µM. In addition, the TGI worked out at 21 µM in the experiment on EKVX NSCLC, 39.5 µM in the experiment with A498 renal and 38.4 µM with TK-10 renal.
With `CCN(CC)CC(=O)N1CCc2c([nH]c3ccccc23)C1c1cccnc1` (configuration not stated), the TGI with UACC-62 melanoma, with OVCAR-4 ovarian, with 786-0 renal, in the experiment on K-562 leukemia, in the experiment with EKVX NSCLC and in the experiment with A498 renal was greater than 100 µM in each case. Besides, the TGI in the experiment with TK-10 renal was greater than 100 µM.
As for `Cl[Si]1(Cl)Oc2ccccc2O[Si](Cl)(Cl)Oc2ccccc2O1`, the TGI with UACC-62 melanoma was 20.9 µM; in the experiment on OVCAR-4 ovarian it was 24.7 µM; in the experiment on 786-0 renal it was 21.5 µM; with K-562 leukemia it was 40.9 µM; with EKVX NSCLC, greater than 100 µM; with A498 renal it was greater than 100 µM. Further, the TGI in the experiment on TK-10 renal is greater than 100 µM.
For `O=C1C2=C(c3ccccc31)C(c1ccccc1Cl)N1C(=O)CCSC1=N2` (configuration not stated), the TGI with UACC-62 melanoma, in the experiment with OVCAR-4 ovarian, in the experiment with 786-0 renal, with K-562 leukemia, with EKVX NSCLC and in the experiment on A498 renal was greater than 100 µM throughout. This compound yielded a TGI in the experiment on TK-10 renal greater than 100 µM.
Take `Cc1cc(N(CCC#N)CCC#N)ccc1/C=C1N=C(/C=C/c2ccccc2)OC(=O)N\1`: the TGI in the experiment with UACC-62 melanoma, with 786-0 renal, in the experiment with K-562 leukemia, in the experiment with EKVX NSCLC, in the experiment on A498 renal and in the experiment on TK-10 renal was greater than 100 µM each time.
For the compound `CC(=O)[O-].CC(=O)[O-].CC(=O)[O-].CC(=O)[O-].[Mo+2].[Mo+2]`, the GI50 with UACC-62 melanoma, in the experiment with OVCAR-4 ovarian, in the experiment with 786-0 renal, in the experiment on K-562 leukemia, in the experiment on EKVX NSCLC and in the experiment on A498 renal was greater than 100 µM throughout. In addition, the GI50 with TK-10 renal was greater than 100 µM. In addition, the TGI in the experiment with UACC-62 melanoma, in the experiment on OVCAR-4 ovarian, in the experiment on 786-0 renal, in the experiment on K-562 leukemia, in the experiment on EKVX NSCLC and in the experiment with A498 renal was greater than 100 µM each time. The compound also came in with a TGI in the experiment with TK-10 renal greater than 100 µM.
